# Tests used:
# Experiment in all cases: Kinase activity detection (Eurofins)
# Type in all cases: biochemical
# [1] = target: T1, Flt4 (Homo sapiens, UniProt P35916)
# T1 construct: purchased Eurofins Pharma Discovery Services
# Description: (§1) The activity of ZY0511 against 104 cancer‐related kinases was carried out by Eurofins Pharma Discovery Services (Celle Lévescault, France).
# [2] = target: T2, CDK1/CyclinB (Homo sapiens, UniProt P06493); details: ZY0511 1 µM, read-out: Activation rate
# T2 construct: purchased Eurofins Pharma Discovery Services (KinaseProfiler)
# Description: as §1
# [3] = target: T3, Mer (Homo sapiens, UniProt Q12866); details: ZY0511 1 µM, read-out: Activation rate
# T3 construct: purchased Eurofins Pharma Discovery Services (KinaseProfiler)
# Description: as §1
# [4] = target: T4, PI3 Kinase (p110βγ/p85α) (Homo sapiens, UniProt P42338); details: ZY0511 1 µM, read-out: Inhibition rate
# T4 construct: purchased Eurofins Pharma Discovery Services (KinaseProfiler)
# Description: as §1
# [5] = target: T5, PKCη (Homo sapiens, UniProt P24723); details: ZY0511 1 µM, read-out: Activation rate
# T5 construct: purchased Eurofins Pharma Discovery Services (KinaseProfiler)
# Description: as §1
# [6] = target: T6, ATM (Homo sapiens, UniProt Q13315)
# T6 construct: purchased Eurofins Pharma Discovery Services
# Description: as §1
# [7] = target: T7, IKKα (Homo sapiens, UniProt O15111); details: ZY0511 1 µM, read-out: Activation rate
# T7 construct: purchased Eurofins Pharma Discovery Services (KinaseProfiler)
# Description: as §1
# [8] = target: T8, c-RAF (Homo sapiens, UniProt P04049); details: ZY0511 1 µM, read-out: Inhibition rate
# T8 construct: purchased Eurofins Pharma Discovery Services (KinaseProfiler)
# T8 sequence (P04049 whole entry): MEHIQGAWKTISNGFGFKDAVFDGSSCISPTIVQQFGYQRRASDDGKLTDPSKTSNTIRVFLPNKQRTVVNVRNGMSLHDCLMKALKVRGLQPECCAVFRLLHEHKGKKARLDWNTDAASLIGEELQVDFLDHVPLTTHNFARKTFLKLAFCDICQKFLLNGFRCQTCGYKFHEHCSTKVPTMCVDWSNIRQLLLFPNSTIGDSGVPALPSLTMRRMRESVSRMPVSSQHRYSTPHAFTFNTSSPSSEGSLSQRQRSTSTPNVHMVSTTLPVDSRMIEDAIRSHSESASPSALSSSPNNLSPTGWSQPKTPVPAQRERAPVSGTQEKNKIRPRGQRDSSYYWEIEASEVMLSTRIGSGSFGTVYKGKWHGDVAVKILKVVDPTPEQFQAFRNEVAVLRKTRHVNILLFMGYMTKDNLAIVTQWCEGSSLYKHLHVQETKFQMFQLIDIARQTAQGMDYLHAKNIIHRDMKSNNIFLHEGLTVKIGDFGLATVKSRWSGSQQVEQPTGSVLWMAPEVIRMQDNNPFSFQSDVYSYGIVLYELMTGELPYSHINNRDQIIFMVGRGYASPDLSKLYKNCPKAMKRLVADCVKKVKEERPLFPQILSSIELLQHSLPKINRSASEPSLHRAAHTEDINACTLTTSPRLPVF
# Description: as §1
# [9] = target: T9, Ret (Homo sapiens, UniProt P07949); details: ZY0511 1 µM, read-out: Activation rate
# T9 construct: purchased Eurofins Pharma Discovery Services (KinaseProfiler)
# Description: as §1
# [10] = target: T10, Fms (Homo sapiens, UniProt P07333); details: ZY0511 1 µM, read-out: Inhibition rate
# T10 construct: purchased Eurofins Pharma Discovery Services (KinaseProfiler)
# Description: as §1
# [11] = target: T11, MELK (Homo sapiens, UniProt Q14680); details: ZY0511 1 µM, read-out: Inhibition rate
# T11 construct: purchased Eurofins Pharma Discovery Services
# Description: as §1
# [12] = target: T12, PI3 Kinase (p110α (E545K)/p85α) (Homo sapiens, UniProt P42336, E545K); details: ZY0511 1 µM, read-out: Inhibition rate
# T12 construct: purchased Eurofins Pharma Discovery Services (KinaseProfiler)
# Description: as §1
# [13] = target: T13, HIPK2 (Homo sapiens, UniProt Q9H2X6); details: ZY0511 1 µM, read-out: Inhibition rate
# T13 construct: purchased Eurofins Pharma Discovery Services
# Description: as §1
# [14] = target: T14, ErbB4 (Homo sapiens, UniProt Q15303); details: ZY0511 1 µM, read-out: Activation rate
# T14 construct: purchased Eurofins Pharma Discovery Services (KinaseProfiler)
# T14 sequence (Q15303 26-1308): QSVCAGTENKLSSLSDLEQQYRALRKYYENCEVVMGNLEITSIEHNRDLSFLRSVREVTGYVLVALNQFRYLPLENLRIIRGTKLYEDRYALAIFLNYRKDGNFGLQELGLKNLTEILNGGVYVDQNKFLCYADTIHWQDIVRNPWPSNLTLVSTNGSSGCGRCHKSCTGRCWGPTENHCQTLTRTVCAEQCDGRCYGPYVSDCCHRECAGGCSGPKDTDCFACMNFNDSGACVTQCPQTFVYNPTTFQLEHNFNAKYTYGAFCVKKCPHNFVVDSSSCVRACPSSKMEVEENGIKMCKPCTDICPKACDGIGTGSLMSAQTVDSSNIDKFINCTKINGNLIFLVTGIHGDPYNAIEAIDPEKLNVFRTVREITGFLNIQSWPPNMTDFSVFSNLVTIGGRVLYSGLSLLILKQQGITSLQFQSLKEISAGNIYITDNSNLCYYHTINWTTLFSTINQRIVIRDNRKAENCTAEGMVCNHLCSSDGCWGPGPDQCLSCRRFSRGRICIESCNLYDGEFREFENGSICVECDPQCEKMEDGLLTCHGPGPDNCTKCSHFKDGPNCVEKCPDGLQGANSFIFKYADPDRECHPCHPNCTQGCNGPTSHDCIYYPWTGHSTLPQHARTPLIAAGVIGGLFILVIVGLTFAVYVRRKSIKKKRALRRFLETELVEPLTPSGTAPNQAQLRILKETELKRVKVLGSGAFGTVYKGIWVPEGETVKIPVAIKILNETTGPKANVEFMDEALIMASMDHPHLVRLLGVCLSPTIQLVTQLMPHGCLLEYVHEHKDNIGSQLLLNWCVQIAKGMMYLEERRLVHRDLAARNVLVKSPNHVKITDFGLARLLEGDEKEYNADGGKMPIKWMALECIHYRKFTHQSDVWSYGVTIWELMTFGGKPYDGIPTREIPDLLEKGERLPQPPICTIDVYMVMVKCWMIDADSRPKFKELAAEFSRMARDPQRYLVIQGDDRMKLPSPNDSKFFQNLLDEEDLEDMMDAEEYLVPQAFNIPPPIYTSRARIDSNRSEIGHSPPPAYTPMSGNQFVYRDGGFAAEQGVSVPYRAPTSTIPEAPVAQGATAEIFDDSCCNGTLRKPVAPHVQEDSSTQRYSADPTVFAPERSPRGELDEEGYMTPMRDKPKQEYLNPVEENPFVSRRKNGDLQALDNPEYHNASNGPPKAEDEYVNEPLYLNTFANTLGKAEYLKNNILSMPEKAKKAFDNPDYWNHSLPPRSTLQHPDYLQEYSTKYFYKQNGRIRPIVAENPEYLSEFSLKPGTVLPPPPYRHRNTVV
# Description: as §1
# [15] = target: T15, CK1γ1 (Homo sapiens, UniProt Q9HCP0); details: ZY0511 1 µM, read-out: Inhibition rate
# T15 construct: purchased Eurofins Pharma Discovery Services
# Description: as §1
# [16] = target: T16, Ron (Homo sapiens, UniProt Q04912); details: ZY0511 1 µM, read-out: Activation rate
# T16 construct: purchased Eurofins Pharma Discovery Services (KinaseProfiler)
# Description: as §1
# [17] = target: T17, Abl (T315I) (Homo sapiens, UniProt P00519, T315I); details: ZY0511 1 µM, read-out: Inhibition rate
# T17 construct: purchased Eurofins Pharma Discovery Services
# Description: as §1
# [18] = target: T18, EGFR (Homo sapiens, UniProt P00533); details: ZY0511 1 µM, read-out: Inhibition rate
# T18 construct: purchased Eurofins Pharma Discovery Services (KinaseProfiler)
# Description: as §1
# [19] = target: T19, FGFR3 (Homo sapiens, UniProt P22607); details: ZY0511 1 µM, read-out: Inhibition rate
# T19 construct: purchased Eurofins Pharma Discovery Services (KinaseProfiler)
# Description: as §1
# [20] = target: T20, Fer (Homo sapiens, UniProt P16591); details: ZY0511 1 µM, read-out: Inhibition rate
# T20 construct: purchased Eurofins Pharma Discovery Services (KinaseProfiler)
# T20 sequence (P16591 whole entry): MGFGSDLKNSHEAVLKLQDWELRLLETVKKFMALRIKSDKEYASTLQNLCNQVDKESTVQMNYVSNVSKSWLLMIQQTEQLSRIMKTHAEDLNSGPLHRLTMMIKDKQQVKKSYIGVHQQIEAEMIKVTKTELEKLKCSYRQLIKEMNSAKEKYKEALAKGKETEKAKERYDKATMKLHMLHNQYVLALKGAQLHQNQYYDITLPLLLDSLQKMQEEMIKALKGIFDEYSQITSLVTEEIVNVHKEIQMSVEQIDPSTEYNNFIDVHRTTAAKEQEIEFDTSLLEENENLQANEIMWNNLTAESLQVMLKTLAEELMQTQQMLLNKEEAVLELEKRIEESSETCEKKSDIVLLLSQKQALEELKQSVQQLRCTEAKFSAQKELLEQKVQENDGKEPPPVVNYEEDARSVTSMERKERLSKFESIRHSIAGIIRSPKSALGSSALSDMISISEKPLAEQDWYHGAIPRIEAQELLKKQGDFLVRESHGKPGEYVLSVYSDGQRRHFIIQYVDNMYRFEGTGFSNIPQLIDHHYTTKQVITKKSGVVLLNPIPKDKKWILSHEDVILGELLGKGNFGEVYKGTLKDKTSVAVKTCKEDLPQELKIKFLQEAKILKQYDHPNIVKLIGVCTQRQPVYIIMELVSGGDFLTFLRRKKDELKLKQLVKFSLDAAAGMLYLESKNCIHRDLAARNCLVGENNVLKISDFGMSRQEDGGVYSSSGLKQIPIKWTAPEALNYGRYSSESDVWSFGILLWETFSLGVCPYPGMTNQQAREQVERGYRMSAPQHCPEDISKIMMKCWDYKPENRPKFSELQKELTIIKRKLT
# Description: as §1
# [21] = target: T21, FAK (Homo sapiens, UniProt Q05397); details: ZY0511 1 µM, read-out: Inhibition rate
# T21 construct: purchased Eurofins Pharma Discovery Services
# Description: as §1
# [22] = target: T22, ZIPK (Homo sapiens, UniProt O43293); details: ZY0511 1 µM, read-out: Inhibition rate
# T22 construct: purchased Eurofins Pharma Discovery Services (KinaseProfiler)
# T22 sequence (O43293 whole entry): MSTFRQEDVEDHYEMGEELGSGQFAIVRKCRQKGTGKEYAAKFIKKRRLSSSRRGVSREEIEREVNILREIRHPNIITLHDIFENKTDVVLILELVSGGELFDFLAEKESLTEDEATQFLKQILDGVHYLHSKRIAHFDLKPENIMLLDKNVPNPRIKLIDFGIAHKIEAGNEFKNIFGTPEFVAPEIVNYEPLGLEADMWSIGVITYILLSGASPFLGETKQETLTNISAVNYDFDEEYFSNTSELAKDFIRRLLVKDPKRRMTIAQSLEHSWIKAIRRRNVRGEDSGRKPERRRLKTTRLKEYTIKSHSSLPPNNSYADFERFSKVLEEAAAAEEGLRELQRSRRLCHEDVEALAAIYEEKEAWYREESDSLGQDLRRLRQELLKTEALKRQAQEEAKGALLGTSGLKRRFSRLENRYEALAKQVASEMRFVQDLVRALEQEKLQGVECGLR
# Description: as §1
# [23] = target: T23, Ros (Homo sapiens, UniProt P08922); details: ZY0511 1 µM, read-out: Inhibition rate
# T23 construct: purchased Eurofins Pharma Discovery Services
# Description: as §1
# [24] = target: T24, Flt1 (Homo sapiens, UniProt P17948); details: ZY0511 1 µM, read-out: Inhibition rate
# T24 construct: purchased Eurofins Pharma Discovery Services (KinaseProfiler)
# Description: as §1
# [25] = target: T25, PI3 Kinase (p120γ) (Homo sapiens, UniProt P48736); details: ZY0511 1 µM, read-out: Inhibition rate
# T25 construct: purchased Eurofins Pharma Discovery Services (KinaseProfiler)
# Description: as §1
# [26] = target: T26, Pim-1 (Homo sapiens, UniProt P11309); details: ZY0511 1 µM, read-out: Inhibition rate
# T26 construct: purchased Eurofins Pharma Discovery Services (KinaseProfiler)
# T26 sequence (P11309 whole entry): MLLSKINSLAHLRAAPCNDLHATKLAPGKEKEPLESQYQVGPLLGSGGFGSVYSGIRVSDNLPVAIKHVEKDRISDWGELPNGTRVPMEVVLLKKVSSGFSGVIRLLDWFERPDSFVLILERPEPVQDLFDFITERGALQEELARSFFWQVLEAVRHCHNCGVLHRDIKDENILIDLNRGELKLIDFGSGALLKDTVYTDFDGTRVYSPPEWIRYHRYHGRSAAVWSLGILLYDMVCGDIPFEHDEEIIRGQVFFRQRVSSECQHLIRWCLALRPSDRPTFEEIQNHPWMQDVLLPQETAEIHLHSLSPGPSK
# Description: as §1
# [27] = target: T27, Hck (Homo sapiens, UniProt P08631); details: ZY0511 1 µM, read-out: Inhibition rate
# T27 construct: purchased Eurofins Pharma Discovery Services (KinaseProfiler)
# Description: as §1
# [28] = target: T28, CK1γ3 (Homo sapiens, UniProt Q9Y6M4); details: ZY0511 1 µM, read-out: Inhibition rate
# T28 construct: purchased Eurofins Pharma Discovery Services (KinaseProfiler)
# Description: as §1
# [29] = target: T29, Flt3 (Homo sapiens, UniProt P36888); details: ZY0511 1 µM, read-out: Inhibition rate
# T29 construct: purchased Eurofins Pharma Discovery Services (KinaseProfiler)
# Description: as §1
# [30] = target: T30, CDK2/cyclinA (Homo sapiens, UniProt P24941); details: ZY0511 1 µM, read-out: Inhibition rate
# T30 construct: purchased Eurofins Pharma Discovery Services
# Description: as §1
# [31] = target: T31, DAPK1 (Homo sapiens, UniProt P53355); details: ZY0511 1 µM, read-out: Activation rate
# T31 construct: purchased Eurofins Pharma Discovery Services (KinaseProfiler)
# Description: as §1
# [32] = target: T32, ZAP-70 (Homo sapiens, UniProt P43403); details: ZY0511 1 µM, read-out: Activation rate
# T32 construct: purchased Eurofins Pharma Discovery Services (KinaseProfiler)
# Description: as §1
# [33] = target: T33, PI3 Kinase (p110δ/p85α) (Homo sapiens, UniProt O00329); details: ZY0511 1 µM, read-out: Inhibition rate
# T33 construct: purchased Eurofins Pharma Discovery Services (KinaseProfiler)
# Description: as §1
# [34] = target: T34, EGFR (T790M, L858R) (Homo sapiens, UniProt P00533, L858R/T790M); details: ZY0511 1 µM
# T34 construct: purchased Eurofins Pharma Discovery Services (KinaseProfiler)
# Description: as §1
# [35] = target: T35, IKKε (Homo sapiens, UniProt Q14164); details: ZY0511 1 µM, read-out: Activation rate
# T35 construct: purchased Eurofins Pharma Discovery Services (KinaseProfiler)
# Description: as §1
# [36] = target: T36, PAK1 (Homo sapiens, UniProt Q13153); details: ZY0511 1 µM, read-out: Activation rate
# T36 construct: purchased Eurofins Pharma Discovery Services (KinaseProfiler)
# Description: as §1
# [37] = target: T37, Axl (Homo sapiens, UniProt P30530); details: ZY0511 1 µM, read-out: Activation rate
# T37 construct: purchased Eurofins Pharma Discovery Services (KinaseProfiler)
# Description: as §1
# [38] = target: T38, PI3 Kinase (p110α (E542K)/p85α) (Homo sapiens, UniProt P42336, E542K); details: ZY0511 1 µM, read-out: Inhibition rate
# T38 construct: purchased Eurofins Pharma Discovery Services
# Description: as §1
# [39] = target: T39, PKCα (Homo sapiens, UniProt P17252); details: ZY0511 1 µM, read-out: Activation rate
# T39 construct: purchased Eurofins Pharma Discovery Services (KinaseProfiler)
# Description: as §1
# [40] = target: T40, PKBα (Homo sapiens, UniProt P31749); details: ZY0511 1 µM, read-out: Inhibition rate
# T40 construct: purchased Eurofins Pharma Discovery Services (KinaseProfiler)
# Description: as §1
# [41] = target: T41, Abl (Homo sapiens, UniProt P00519); details: ZY0511 1 µM, read-out: Inhibition rate
# T41 construct: purchased Eurofins Pharma Discovery Services
# Description: as §1
# T1 sequence (P35916 25-1363, species assumed): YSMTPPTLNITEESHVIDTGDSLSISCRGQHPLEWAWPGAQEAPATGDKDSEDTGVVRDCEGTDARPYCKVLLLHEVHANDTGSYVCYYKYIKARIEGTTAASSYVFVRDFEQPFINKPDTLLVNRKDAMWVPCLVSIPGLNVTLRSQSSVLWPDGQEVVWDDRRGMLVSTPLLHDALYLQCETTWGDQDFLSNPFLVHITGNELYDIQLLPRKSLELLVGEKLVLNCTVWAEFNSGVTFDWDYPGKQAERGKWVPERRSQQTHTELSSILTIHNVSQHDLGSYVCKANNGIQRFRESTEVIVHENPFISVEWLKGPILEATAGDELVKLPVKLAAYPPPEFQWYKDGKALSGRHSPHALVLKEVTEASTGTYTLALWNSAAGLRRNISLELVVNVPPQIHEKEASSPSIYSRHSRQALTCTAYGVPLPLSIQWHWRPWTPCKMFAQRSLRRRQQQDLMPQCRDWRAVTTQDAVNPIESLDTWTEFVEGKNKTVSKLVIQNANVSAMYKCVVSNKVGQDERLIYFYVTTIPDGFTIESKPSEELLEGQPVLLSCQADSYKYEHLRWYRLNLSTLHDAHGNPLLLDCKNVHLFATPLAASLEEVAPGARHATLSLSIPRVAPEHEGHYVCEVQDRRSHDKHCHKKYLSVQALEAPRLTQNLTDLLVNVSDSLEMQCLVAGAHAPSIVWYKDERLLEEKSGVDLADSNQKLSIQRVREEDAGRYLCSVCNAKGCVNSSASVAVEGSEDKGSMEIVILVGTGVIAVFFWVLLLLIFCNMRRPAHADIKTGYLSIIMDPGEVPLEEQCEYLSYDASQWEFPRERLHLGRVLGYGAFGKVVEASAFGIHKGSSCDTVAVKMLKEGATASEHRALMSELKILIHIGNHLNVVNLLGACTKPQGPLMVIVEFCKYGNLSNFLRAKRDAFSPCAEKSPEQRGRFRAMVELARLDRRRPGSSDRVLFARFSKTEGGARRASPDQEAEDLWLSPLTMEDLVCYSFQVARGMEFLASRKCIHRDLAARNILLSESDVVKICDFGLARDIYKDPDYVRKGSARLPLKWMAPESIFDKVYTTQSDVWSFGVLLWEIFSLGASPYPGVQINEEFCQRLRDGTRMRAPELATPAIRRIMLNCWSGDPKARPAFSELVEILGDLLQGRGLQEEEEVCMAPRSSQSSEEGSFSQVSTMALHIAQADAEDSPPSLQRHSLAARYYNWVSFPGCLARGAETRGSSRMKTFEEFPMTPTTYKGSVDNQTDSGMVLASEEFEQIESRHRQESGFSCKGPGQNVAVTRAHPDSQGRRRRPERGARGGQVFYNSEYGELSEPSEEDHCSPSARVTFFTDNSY
compound,measurement,setting,value
"O=C(N/N=C1\CCc2c(Cl)ccc(O)c21)c1cccc(S(=O)(=O)N2CCOCC2)c1 [ZY0511, (E)‐N'‐(2, 3‐dihydro‐1H‐inden‐1‐ylidene) benzohydrazides]",IC50,[1],> 10 µM
same,inhibition at 1 µM,"[1]; ZY0511 1 µM, read-out: Inhibition rate",62%
same,activation at 1 µM,[2],3%
same,activation at 1 µM,[3],2%
same,inhibition at 1 µM,[4],8%
same,activation at 1 µM,[5],2%
same,IC50,[6],9.8 µM
same,activation at 1 µM,[7],13%
same,inhibition at 1 µM,[8],43%
same,activation at 1 µM,[9],15%
same,inhibition at 1 µM,[10],7%
same,inhibition at 1 µM,[11],1%
same,inhibition at 1 µM,[12],15%
same,inhibition at 1 µM,[13],13%
same,activation at 1 µM,[14],10%
same,inhibition at 1 µM,[15],12%
same,activation at 1 µM,[16],7%
same,inhibition at 1 µM,[17],1%
same,inhibition at 1 µM,[18],7%
same,inhibition at 1 µM,[19],20%
same,inhibition at 1 µM,[20],47%
same,inhibition at 1 µM,[21],3%
same,inhibition at 1 µM,[22],6%
same,inhibition at 1 µM,[23],11%
same,inhibition at 1 µM,[24],20%
same,inhibition at 1 µM,[25],10%
same,inhibition at 1 µM,[26],15%
same,inhibition at 1 µM,[27],29%
same,inhibition at 1 µM,[28],21%
same,inhibition at 1 µM,[29],8%
same,inhibition at 1 µM,[30],10%
same,activation at 1 µM,[31],5%
same,activation at 1 µM,[32],4%
same,inhibition at 1 µM,[33],6%
same,Activation rate,[34],2%
same,activation at 1 µM,[35],1%
same,activation at 1 µM,[36],1%
same,activation at 1 µM,[37],3%
same,inhibition at 1 µM,[38],2%
same,activation at 1 µM,[39],4%
same,inhibition at 1 µM,[40],4%
same,inhibition at 1 µM,[41],13%
